Measured values published in patent US20250059195A1, “TRIAZOLONE DERIVATIVE SALT AS NEUTROPHIL ELASTASE INHIBITOR” (CHIESI FARMACEUTICI S.P.A., priority 2021, published 2025).
Like-named read-outs stand apart in the source and are kept apart here. Each block holds one molecule with its values, some of them ahead of it.

Tests used:
[1] = Head-out plethysmography (HOP) assay, lung function parameters; settings: rats, dry powder snout-only inhalation
[2] = rat, in vivo
[3] = biological target: T1, human neutrophil elastase (HNE) (Homo sapiens, UniProt P08246); assay: HNE-induced lung injury assay (BAL fluid haemoglobin content); type: in vivo, rat; settings: for % Inhibition at 300 μg/Kg (inhibition of HNE-induced haemoglobin content in BALF) / % Inhibition at 600 μg/Kg (inhibition of HNE-induced haemoglobin content in BALF): male Sprague Dawley rats, dry powder nose-only inhalation 3 hours prior to HNE i.t. 100 U/rat, vs HNE-treated vehicle control; for % Inhibition at 300 μg/Kg (inhibition of HNE-induced haemoglobin content in BALF): 300 μg/Kg (0.3 mg/kg); for % Inhibition at 600 μg/Kg (inhibition of HNE-induced haemoglobin content in BALF): 600 μg/Kg (0.6 mg/kg); for inhibition of BAL fluid haemoglobin content, dose dependence: inhalation as dry powder formulation at 0.03, 0.3 and 0.6 mg/kg
T1 sequence (P08246 30-267): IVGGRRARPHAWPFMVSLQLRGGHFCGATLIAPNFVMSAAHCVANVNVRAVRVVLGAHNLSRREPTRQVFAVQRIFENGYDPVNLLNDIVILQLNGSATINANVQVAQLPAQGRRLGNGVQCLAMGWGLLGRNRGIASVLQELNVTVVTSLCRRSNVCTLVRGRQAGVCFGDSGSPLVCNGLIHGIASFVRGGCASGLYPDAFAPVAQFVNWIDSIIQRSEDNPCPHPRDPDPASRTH
Description: Then, one hour after the PBS or HNE administration animals were sacrificed and bronchoalveolar lavage (BAL) was performed in order to assess the HNE-induced lung injury measured as haemoglobin concentration.
BAL fluid samples were centrifuged at 800 g for 15 min at 4° C. The supernatant was collected and the pellet was re-suspended in 3 mL of distilled water. A standard curve with known volumes of lysated blood cells was made from a stem solution of lysated blood cells. 150 μL of standards and samples were transferred in duplicate to a 96-well plate and the OD measured at 412 nm.
Percentage of compound efficacy (assessed as inhibition of HNE-induced haemoglobin content in BALF) was calculated following this formula: 100−[(mean of haemoglobin concentration of test compound treated rats exposed to HNE)−(mean of haemoglobin concentration of vehicle treated rats exposed to PBS)]/[(mean of haemoglobin concentration of vehicle treated rats exposed to HNE)−(mean of haemoglobin concentration of vehicle treated rats exposed to PBS)]×100.

[4] = Solubility in water of different salts; type: physicochemical; settings: water at RT
Description: The complete dissolution of the material was visually observed. […] From this experiment the xinafoate salt has a solubility lower than 0.05 mg/ml.

[5] = male, Wistar, 0.6 mg/kg, 60 min

- increase in PenH area compared to vehicle ([1]; high dose (5.5 mg/kg)): ~20 fold
- reduction in tidal volume, maximum vs vehicle ([1]; high dose (5.5 mg/kg), during inhalation): 38%
- increase in PenH area compared to vehicle ([1]; low dose (0.55 mg/kg)): about 8 fold
- increase in respiratory rate, maximum effect vs vehicle ([1]; low dose (0.55 mg/kg), during inhalation): 59%
- % of Reduction of tidal volume at the highest tested dose ([1]; peak effect vs vehicle (lactose)): 38%
SMILES: COC(=O)C1=C(C)N(c2cccc(C(F)(F)F)c2)c2n[nH]c(=O)n2[C@@H]1c1ccc(C#N)cc1CC[N+](C)(C)C.[Br-] [Bromide, (2-{5-Cyano-2-[(R)-6-methoxycarbonyl-7-methyl-3-oxo-8-(3-trifluoromethyl-phenyl)-2,3,5,8-tetrahydro-[1,2,4]triazolo[4,3-a]pyrimidin-5-yl]-phenyl}-ethyl)-trimethyl-ammonium bromide salt]

- increase of PenH compared to vehicle group [2, 5]: about 8 fold
- increase of respiratory rate, peak effect vs vehicle (lactose) [2, 5]: 32%
- reduction of tidal volume, peak effect vs vehicle [2, 5]: 35%
- increase of PenH compared to vehicle group ([2]; male, Wistar, 6 mg/kg, 60 min): ~16 fold
- increase of respiratory rate, peak effect vs vehicle (lactose) ([2]; male, Wistar, 6 mg/kg, 60 min): 54%
- reduction of tidal volume, peak effect vs vehicle ([2]; male, Wistar, 6 mg/kg, 60 min): 39%
- % of Reduction of tidal volume at the highest tested dose ([2]; male, Wistar, 60 min): 35-39%
SMILES: COC(=O)C1=C(C)N(c2cccc(C(F)(F)F)c2)c2n[nH]c(=O)n2[C@@H]1c1ccc(C#N)cc1CC[N+](C)(C)C.CS(=O)(=O)[O-] [Methanesulfonate, (2-{5-Cyano-2-[(R)-6-methoxycarbonyl-7-methyl-3-oxo-8-(3-trifluoromethyl-phenyl)-2,3,5,8-tetrahydro-[1,2,4]triazolo[4,3-a]pyrimidin-5-yl]-phenyl}-ethyl)-trimethyl-ammonium methanesulfonate]
- % Inhibition at 300 μg/Kg (inhibition of HNE-induced haemoglobin content in BALF) [3]: 20%
- % Inhibition at 600 μg/Kg (inhibition of HNE-induced haemoglobin content in BALF) [3]: 25%
- inhibition of BAL fluid haemoglobin content, dose dependence ([3]; rats): dose-dependent inhibition

- solubility ([4]; thermodynamic from solid, read-out: Solubility (mg/ml) in water): < 0.05 mg/mL
- Solubility (mg/ml) in water [4]: <0.05 mg/mL
SMILES: COC(=O)C1=C(C)N(c2cccc(C(F)(F)F)c2)c2n[nH]c(=O)n2[C@@H]1c1ccc(C#N)cc1CC[N+](C)(C)C [Xinafoate, (2-{5-Cyano-2-[(R)-6-methoxycarbonyl-7-methyl-3-oxo-8-(3-trifluoromethyl-phenyl)-2,3,5,8-tetrahydro-[1,2,4]triazolo[4,3-a]pyrimidin-5-yl]-phenyl}-ethyl)-trimethyl-ammonium xinafoate]
- % of Reduction of tidal volume at the highest tested dose [2]: No variation of any lung function parameters
- % Inhibition at 300 μg/Kg (inhibition of HNE-induced haemoglobin content in BALF) [3]: 35%
- % Inhibition at 600 μg/Kg (inhibition of HNE-induced haemoglobin content in BALF) [3]: 80%
- efficacy in inhibiting HNE in vivo, comparison of the salts ([3]; rats, dry powder inhalation): superior efficacy than the methanesulfonate salt
- inhibition of BAL fluid haemoglobin content, dose dependence ([3]; rats): dose-dependent inhibition

- increase in PenH area ([2]; male, Wistar, 7 mg/kg, 60 min): about 9 fold
- increase in respiratory rate, maximum effect vs vehicle ([2]; male, Wistar, 7 mg/kg, 60 min): 51%
- reduced tidal volume, maximum decrease vs vehicle control ([2]; male, Wistar, 7 mg/kg, 60 min): 50%
- % of Reduction of tidal volume at the highest tested dose ([2]; male, Wistar, 60 min): 50%
SMILES: CC(=O)[O-].COC(=O)C1=C(C)N(c2cccc(C(F)(F)F)c2)c2n[nH]c(=O)n2[C@@H]1c1ccc(C#N)cc1CC[N+](C)(C)C [Acetate, (2-{5-Cyano-2-[(R)-6-methoxycarbonyl-7-methyl-3-oxo-8-(3-trifluoromethyl-phenyl)-2,3,5,8-tetrahydro-[1,2,4]triazolo[4,3-a]pyrimidin-5-yl]-phenyl}-ethyl)-trimethyl-ammonium acetate salt]
